Laboratory results as given in the supplement of paper PMC10307832.

Tests used:
Test in all cases: relative viability (nuclei count vs DMSO), 5 days (fraction); higher = more cells survive
[1] = compound: CS(=O)(=O)CCNCc1ccc(-c2ccc3ncnc(Nc4ccc(OCc5cccc(F)c5)c(Cl)c4)c3c2)o1 [Lapatinib] + O=C(c1cc(Cc2n[nH]c(=O)c3ccccc23)ccc1F)N1CCN(C(=O)C2CC2)CC1 [Olaparib] (partner 8 µM)
Outline: (§1)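 Medians of duplicate plates are given as relative viability. That measure is the nuclei count in treated wells divided by the count in vehicle wells. Counts were taken on 4× images of lung cancer cell lines in 1536-well plates, 5 days after pin-tool dosing the day after seeding with one drug alone or a fixed anchor-drug dose plus five library-drug doses (not always all listed) in √10 steps.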

[2] = compound: CS(=O)(=O)CCNCc1ccc(-c2ccc3ncnc(Nc4ccc(OCc5cccc(F)c5)c(Cl)c4)c3c2)o1 [Lapatinib] + Nc1ncn([C@H]2C[C@H](O)[C@@H](CO)O2)c(=O)n1 [Decitabine] (partner 2 µM)
Outline: as §1

[3] = compound: CS(=O)(=O)CCNCc1ccc(-c2ccc3ncnc(Nc4ccc(OCc5cccc(F)c5)c(Cl)c4)c3c2)o1 [Lapatinib] + CC1(C)CCC(c2ccc(Cl)cc2)=C(CN2CCN(c3ccc(C(=O)NS(=O)(=O)c4ccc(N[C@H](CCN5CCOCC5)CSc5ccccc5)c(S(=O)(=O)C(F)(F)F)c4)cc3)CC2)C1 [Navitoclax] (partner 0.5 µM)
Outline: as §1

[4] = compound: CC1=NC=CC(=C1)C2=CC=C(C=C2)CC(=O)NC3=CC=C(C=C3)C4=CN=CC=C4 [Wnt-C59] + Cc1nc(Nc2ncc(C(=O)Nc3c(C)cccc3Cl)s2)cc(N2CCN(CCO)CC2)n1 [Dasatinib] (partner 0.075 µM)
Outline: as §1

Cell Line	relative viability ([1]; first compound 0.02 µM)	relative viability ([1]; first compound 0.06325 µM)	relative viability ([1]; first compound 0.2 µM)	relative viability ([1]; first compound 0.6325 µM)	relative viability ([1]; first compound 2 µM)	relative viability ([2]; first compound 0.02 µM)	relative viability ([2]; first compound 0.06325 µM)	relative viability ([2]; first compound 0.2 µM)	relative viability ([2]; first compound 0.6325 µM)	relative viability ([2]; first compound 2 µM)	relative viability ([3]; first compound 0.02 µM)	relative viability ([3]; first compound 0.06325 µM)	relative viability ([3]; first compound 0.2 µM)	relative viability ([3]; first compound 0.6325 µM)	relative viability ([3]; first compound 2 µM)	relative viability ([4]; first compound 0.001 µM)	relative viability ([4]; first compound 0.01 µM)	relative viability ([4]; first compound 0.03162 µM)	relative viability ([4]; first compound 0.1 µM)
201T	0.85	0.848	0.858	0.833	0.778	0.845	0.812	0.813	0.827	0.817	1.16	1.22	1.16	1.22	1.2	0.615	0.578	0.505	0.558
A549	–	0.217	0.376	0.364	0.269	–	0.224	0.305	0.291	0.133	1.12	1.13	1.22	1.21	1.21	–	–	–	–
A-427	0.744	0.733	0.918	0.759	0.527	0.561	0.519	0.597	0.614	0.498	–	0.977	0.885	0.933	0.957	0.71	0.682	0.768	0.798
ABC-1	0.983	0.882	–	0.781	0.9	1.1	0.931	–	1.01	1.02	–	–	–	–	–	0.509	0.605	0.506	0.592
BEN	1.13	1	1.07	1.01	0.837	0.413	0.743	0.725	0.748	0.665	0.0643	0.0706	0.061	0.0751	0.0557	0.329	0.3	0.35	0.385
CAL-12T	0.703	0.745	0.71	0.599	0.556	–	–	–	–	–	1.18	1.23	1.32	1.03	0.724	0.505	0.391	0.475	0.437
COR-L23	0.329	0.358	0.33	0.309	0.275	0.516	0.421	0.456	0.417	0.422	0.943	0.938	1.09	0.887	0.854	0.483	0.571	0.641	0.413
COR-L 105	0.603	0.657	0.647	0.669	0.406	0.62	0.538	0.586	0.613	0.376	0.701	0.744	0.77	0.574	0.302	0.275	0.357	0.308	0.304
Calu-6	0.612	0.555	0.589	0.525	0.447	–	–	–	–	–	0.844	0.812	0.91	0.819	0.764	–	–	–	–
ChaGo-K-1	0.418	0.471	0.478	0.431	0.396	0.528	0.562	0.542	0.52	0.447	–	1.15	0.781	0.99	0.457	0.659	0.606	0.65	0.606
EBC-1	0.736	0.78	0.703	0.759	0.489	–	–	–	–	–	0.459	0.361	0.457	0.337	0.265	–	–	–	–
EKVX	–	0.694	0.77	0.602	0.337	–	0.326	0.333	0.304	0.138	0.859	0.916	0.809	0.77	0.199	0.575	0.511	0.527	0.451
EMC-BAC-2	–	0.447	0.56	0.537	0.528	–	0.864	–	0.945	0.956	1.05	0.984	1.09	1.02	0.968	0.327	0.36	0.34	0.341
EPLC-272H	0.7	0.544	0.767	0.614	0.527	–	0.361	0.352	0.34	0.366	–	1.13	0.869	0.991	0.961	0.399	0.269	0.399	0.36
H3255	0.526	0.516	0.634	0.469	0.325	–	0.543	0.584	0.422	0.207	0.476	0.512	0.37	0.464	0.111	0.425	0.359	0.32	0.335
HARA	0.712	0.552	0.957	0.618	0.402	0.575	0.525	0.522	0.37	0.398	1.13	1.18	1.15	1.08	0.938	0.249	0.208	0.293	0.32
